Values of other authors in patent US20200338012A1 (TAHO Pharmaceuticals Ltd., priority 2019, published 2020).
In brackets after ≈: the same amount, converted by molar mass.

How the values were obtained:
[1] = oral tablet

water solubility: 0.0679 mg/mL (≈ 148 µM)
bioavailability [1]: 50%
Structure (SMILES): COc1ccc(-n2nc(C(N)=O)c3c2C(=O)N(c2ccc(N4CCCCC4=O)cc2)CC3)cc1 [apixaban, Apixaban]
